One series in a line: in vitro. To be noted: rabbit, gastric mucosal cells.
Series [1] concerns isolated gastric fundic gland. In words: CAP: Acid Secretion Inhibition Test In Vitro ([14C]-aminopyrine uptake). It is filed as cell-based, rabbit (male Japanese White). To be noted: Oryctolagus cuniculus, 40 min; 10^-5 M compound, 10^-5 M histamine, rabbit isolated gastric fundic gland, 37° C., 40 minutes; read-out: CAP: acid secretion inhibitory rate. In a few lines: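 Fundic gland suspension (1.6×10^6 cells/ml in HEPES nutrient buffer) was stimulated with histamine 10^-5 M plus test compound 10^-5 M (final) and [14C]-aminopyrine 0.05 μCi/ml, then shaken 40 min at 37 °C. Pellet and supernatant were scintillation-counted to give the NaSCN-corrected specific aminopyrine accumulation ratio, in duplicate.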

The next series concerns Male Slc:ICR mice. Further details: species or system mouse (male Slc:ICR). To be noted: mouse, in vivo. In a few lines:
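Fasted 5-week-old male mice (3 to 5 per group) received a single oral 2,000 mg/kg dose in 0.5% sodium carboxymethyl cellulose, with vehicle controls. Behavior and body weight were followed daily and organs examined at death or one week post-dose. Toxicity was scored 1-5 from mortality and behavioral or organ findings.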

`CC(C)=CCOc1ccc(C(=O)NCCN2CCOCC2)cc1OCC=C(C)C` [Example 35]: the cytotoxicity at 4 h, 100 µM in “in vitro” was -17%. In addition, in series [1], the inhibition at 10 µM is 100%. In addition, the “AT: toxicity at single dose, 5 levels” value with Male Slc:ICR mice is listed as 4.
In the same order, the values of `CC(C)=CCC/C(C)=C/COc1ccc(C(=O)NCCN2CCOCC2)cc1` [Example 31] are 15%, 99% and 5.
In the same order, the values of `CC(C)=CCOc1ccc(C(=O)NCCN2CCOCC2)cc1` [Example 28] are -39%, 88% and 3.

Source of the values: patent US5814634A, “Alkylenediamine derivative anti-ulcer drug and antibacterial drug” (Shiseido Co. Ltd., priority 1996, dated 1998).
